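Briefly, cells in 96-well plates were exposed to five compound concentrations for 48 h, and endpoints were estimated by linear interpolation. Here, GI50 denotes the concentration required for 50% inhibition of growth. TGI denotes the concentration required for complete inhibition of growth.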
Legend:
Experiment in all cases: NCI-60 cell line screen, 48 h; in the data active means GI50 below about 0.43 µM; inactive means the rest
[1] = test system: MOLT-4 leukemia
[2] = test system: HOP-62 NSCLC
[3] = test system: NCI-H226 lung
[4] = test system: IGROV1 ovarian
[5] = test system: SNB-19 CNS
[6] = test system: SF-295 CNS
[7] = test system: MDA-MB-231 breast
[8] = test system: SK-MEL-2 melanoma
[9] = test system: BT-549 breast
[10] = test system: OVCAR-3 ovarian
[11] = test system: HT29 colon
[12] = test system: A549 NSCLC
[13] = test system: SN12C renal
[14] = test system: RXF 393 renal
[15] = test system: LOX IMVI melanoma
[16] = test system: SW-620 colon
[17] = test system: DU-145 prostate
[18] = test system: SK-OV-3 ovarian
[19] = test system: SF-268 CNS
[20] = test system: NCI-H522 lung
[21] = test system: K-562 leukemia
[22] = test system: HS 578T breast
[23] = test system: SK-MEL-5 melanoma
[24] = test system: OVCAR-8 ovarian
[25] = test system: SNB-75 CNS
[26] = test system: UACC-62 melanoma
[27] = test system: MDA-MB-435
[28] = test system: NCI-H460 lung
[29] = test system: PC-3 prostate
[30] = test system: UO-31 renal
[31] = test system: CAKI-1 renal
[32] = test system: CCRF-CEM leukemia
[33] = test system: ACHN renal
[34] = test system: HCC-2998 colon
[35] = test system: COLO 205 colon
[36] = test system: NCI-H23 lung
[37] = test system: HOP-92 NSCLC
[38] = test system: KM12 colon
[39] = test system: T-47D breast
[40] = test system: HCT-15 colon
[41] = test system: EKVX NSCLC
[42] = test system: MALME-3M melanoma
[43] = test system: SR leukemia
[44] = test system: OVCAR-5 ovarian
[45] = test system: 786-0 renal
[46] = test system: HCT-116 colon
[47] = test system: M14 melanoma
[48] = test system: UACC-257 melanoma
[49] = test system: RPMI-8226 leukemia
[50] = test system: MCF7 breast
[51] = test system: OVCAR-4 ovarian
[52] = test system: SK-MEL-28 melanoma
[53] = test system: SF-539 CNS
[54] = test system: A498 renal
[55] = test system: NCI/ADR-RES ovarian
[56] = test system: U251 CNS
[57] = test system: HL-60(TB) leukemia
[58] = test system: TK-10 renal

CN1CC[C@@H](NC(=O)Nc2ccc(C#N)cc2)C[C@@H]1c1nc2ccccc2[nH]1
> 56.4 µM: TGI [34]
> 86.6 µM: TGI [55]
> 60.8 µM: TGI [36]
> 100 µM: TGI [1] | TGI [2] | TGI [3] | TGI [4] | TGI [5] | TGI [6] | TGI [7] | TGI [8] | TGI [9] | TGI [10] | TGI [11] | TGI [12] | TGI [13] | TGI [14] | TGI [16] | TGI [17] | TGI [18] | TGI [19] | TGI [20] | TGI [21] | TGI [22] | TGI [23] | TGI [24] | TGI [25] | TGI [26] | TGI [27] | TGI [28] | TGI [29] | TGI [30] | TGI [31] | TGI [32] | TGI [33] | TGI [35] | TGI [37] | TGI [38] | TGI [39] | TGI [40] | TGI [41] | TGI [42] | TGI [43] | TGI [44] | TGI [45] | TGI [46] | TGI [47] | TGI [48] | TGI [49] | TGI [50] | TGI [51] | TGI [52] | TGI [53] | TGI [56] | TGI [57] | TGI [58]
> 59.5 µM: TGI [15]
inactive: GI50 [1] 55.6 µM | GI50 [2] > 100 µM | GI50 [3] > 100 µM | GI50 [4] > 100 µM | GI50 [5] > 100 µM | GI50 [6] > 100 µM | GI50 [7] > 100 µM | GI50 [8] > 100 µM | GI50 [9] > 100 µM | GI50 [10] > 100 µM | GI50 [11] > 74.2 µM | GI50 [12] > 100 µM | GI50 [13] > 78.9 µM | GI50 [14] 40.5 µM | GI50 [15] > 42.5 µM | GI50 [16] > 100 µM | GI50 [17] > 100 µM | GI50 [18] > 100 µM | GI50 [19] > 100 µM | GI50 [20] > 100 µM | GI50 [21] > 100 µM | GI50 [22] > 100 µM | GI50 [23] > 57.7 µM | GI50 [24] > 100 µM | GI50 [25] > 73.2 µM | GI50 [26] 98.8 µM | GI50 [27] > 100 µM | GI50 [28] > 100 µM | GI50 [29] > 100 µM | GI50 [30] > 78.1 µM | GI50 [31] > 100 µM | GI50 [32] 97.4 µM | GI50 [33] > 86.5 µM | GI50 [34] > 41.3 µM | GI50 [35] > 80.6 µM | GI50 [36] > 42.3 µM | GI50 [37] 35.9 µM | GI50 [38] > 100 µM | GI50 [39] > 70.4 µM | GI50 [40] > 100 µM | GI50 [41] > 100 µM | GI50 [42] > 100 µM | GI50 [43] 48.2 µM | GI50 [44] > 100 µM | GI50 [45] > 100 µM | GI50 [46] > 87.1 µM | GI50 [47] > 100 µM | GI50 [48] > 100 µM | GI50 [49] > 100 µM | GI50 [50] 98.8 µM | GI50 [51] 100 µM | GI50 [52] > 100 µM | GI50 [53] > 100 µM | GI50 [54] > 27.4 µM | GI50 [55] > 49.8 µM | GI50 [56] > 100 µM | GI50 [57] > 100 µM | GI50 [58] > 100 µM
> 65.7 µM: TGI [54]

Source: PubChem BioAssay (NCI)
